This test concerns the target human chemokine receptor CXCR7 (Homo sapiens (Human), UniProt P25106). The experiment in a line: Tango CXCR7-bla U2OS beta-arrestin recruitment assay (beta-lactamase reporter, FRET), antagonism of CXCL12/SDF1-α.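 Further: compounds preincubated 15 min before CXCL12 addition, then 22 h at 37 °C, FRET emission ratio read with CCF4-AM substrate after 2 h.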 The test is classed as cell-based. Particulars: antagonistic effect on CXCR7; Tango CXCR7-bla U2OS cells, CXCL12/SDF1-α at its EC80. In general terms: Recruitment of arrestin is a read-out of receptor activation apart from second messengers.

Chain of human chemokine receptor CXCR7 (P25106 whole entry): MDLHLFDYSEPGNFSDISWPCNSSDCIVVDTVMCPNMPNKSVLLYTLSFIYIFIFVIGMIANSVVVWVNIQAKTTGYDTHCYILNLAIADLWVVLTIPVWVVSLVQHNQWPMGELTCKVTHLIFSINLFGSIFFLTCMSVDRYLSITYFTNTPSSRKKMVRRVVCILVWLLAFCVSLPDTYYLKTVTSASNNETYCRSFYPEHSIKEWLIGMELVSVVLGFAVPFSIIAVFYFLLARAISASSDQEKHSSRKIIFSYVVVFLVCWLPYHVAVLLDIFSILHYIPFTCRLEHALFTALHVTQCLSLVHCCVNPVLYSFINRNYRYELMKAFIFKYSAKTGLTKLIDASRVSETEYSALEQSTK

Broadly, the IC50 is the concentration needed to halve the response being measured. A low value points to higher potency. For `CN(CCc1ccccc1)C(=O)[C@@H]1CNCC[C@H]1NC(=O)c1cc(-c2ccc(F)cc2F)on1` [Example 2.058], 347 nM corresponded to half-maximal inhibition (IC50). Next, `O=C(N[C@H]1CCN(CC2CC2)C[C@@H]1C(=O)NC1(c2cccc[n+]2[O-])CC1)c1cc(-c2ccc(F)cc2F)on1` [Example 2.061]: 41 nM. Next, `O=C(NC1CCN(C2CCCC2)CC1C(=O)NC1(c2cccc[n+]2[O-])CC1)c1cc(-c2ccc(F)cc2F)on1` (stereo not shown) [Example 2.062]: 23 nM. `O=C(N[C@@H]1CCN(C2CCCC2)C[C@H]1C(=O)NC1(c2cccc[n+]2[O-])CC1)c1cc(-c2ccc(F)cc2F)on1` [Example 2.062a] had an IC50 of 298 nM. Next, `O=C(N[C@H]1CCN(C2CCCC2)C[C@@H]1C(=O)NC1(c2cccc[n+]2[O-])CC1)c1cc(-c2ccc(F)cc2F)on1` [Example 2.062b]: 14 nM. Next, `O=C(N[C@H]1CCN(C2CCC2)C[C@@H]1C(=O)NC1(c2cccc[n+]2[O-])CC1)c1cc(-c2ccc(F)cc2F)on1` [Example 2.063]: 219 nM. Next, `N#CC1(NC(=O)[C@@H]2CN(C3CCCC3)CC[C@H]2NC(=O)c2cc(-c3ccc(F)cc3F)on2)CCC1` [Example 2.064]: 84 nM; `O=C(N[C@H]1CCN(CC2CCCC2)C[C@@H]1C(=O)NC1(c2ncccn2)CC1)c1cc(-c2ccc(F)cc2F)on1` [Example 2.065]: 1 nM. The compound `O=C(N[C@H]1CCN(CC2(C(F)F)CC2)C[C@@H]1C(=O)NC1(c2ncccn2)CC1)c1cc(-c2ccc(F)cc2F)on1` [Example 2.067] showed an IC50 of 18 nM. Consider `O=C(N[C@H]1CCN(Cc2ccc(F)cc2)C[C@@H]1C(=O)NC1(c2ncccn2)CC1)c1cc(-c2ccc(F)cc2F)on1` [Example 2.068], for which the IC50 is 12 nM.

Consider `CC(C)(C)CN1CC[C@H](NC(=O)c2cc(-c3ccc(F)cc3F)on2)[C@@H](C(=O)NC2(c3ncccn3)CC2)C1` [Example 2.069], for which it took 6 nM to reach half-maximal inhibition (IC50). The result for `O=C(N[C@H]1CCN(Cc2ccccc2)C[C@@H]1C(=O)NC1(c2ncccn2)CC1)c1cc(-c2ccc(F)cc2F)on1` [Example 2.071] reads 8 nM.

`CCN(C)C(=O)[C@@H]1CN(C2CCCC2)CC[C@H]1NC(=O)c1cc(-c2ccc(F)cc2F)on1` [Example 2.076] returned an IC50 of 71 nM. This IC50 is about 8.9-fold higher than that of the compound before.

Compound `CCN(C)C(=O)[C@@H]1CN(CC2CC2)CC[C@H]1NC(=O)c1cc(-c2ccc(F)cc2F)on1` [Example 2.077] came in with an IC50 of 112 nM. Regarding `CN(CCc1ccccn1)C(=O)[C@@H]1CN(C2CCCC2)CC[C@H]1NC(=O)c1cc(-c2ccc(F)cc2F)on1` [Example 2.078], half-maximal inhibition (IC50) was put at 72 nM. Against the preceding compound, the IC50 is about 1.6-fold lower. The result for `CN(CCc1ccccn1)C(=O)[C@@H]1CN(CC2CC2)CC[C@H]1NC(=O)c1cc(-c2ccc(F)cc2F)on1` [Example 2.079] reads 38 nM. Next, `CN(C)C(=O)[C@@H]1CN(Cc2ccccc2)CC[C@H]1NC(=O)c1cc(-c2ccc(F)cc2F)on1` [Example 2.081]: 118 nM.

Regarding `CN(C)C(=O)[C@@H]1CN(Cc2ccccc2Cl)CC[C@H]1NC(=O)c1cc(-c2ccc(F)cc2F)on1` [Example 2.082], the IC50 was 342 nM.

The compound `CN(C)C(=O)[C@@H]1CN(Cc2ccccc2F)CC[C@H]1NC(=O)c1cc(-c2ccc(F)cc2F)on1` [Example 2.083] showed an IC50 of 777 nM. Against the preceding compound, the IC50 is about 2.3-fold higher.

Compound `O=C(N[C@H]1CCN(CC2CC2(F)F)C[C@@H]1C(=O)NC1(c2ncccn2)CC1)c1cc(-c2ccc(F)cc2F)on1` (stereo partly shown) [Example 2.084] registered a concentration for half-maximal inhibition (IC50) of 8 nM. Next, `CN(C)C(=O)[C@@H]1CN(Cc2ccn(C)c2)CC[C@H]1NC(=O)c1cc(-c2ccc(F)cc2F)on1` [Example 2.085]: 179 nM. For the compound `O=C(N[C@H]1CCN(CC2CC2)C[C@@H]1C(=O)NC1(c2ccccn2)CC1)c1cn(-c2ccc(F)cc2F)nn1` [Example 2.091], the IC50 is 62 nM. As for `O=C(N[C@H]1CCN(C2CCCC2)C[C@@H]1C(=O)NC1(c2ccccn2)CC1)c1cn(-c2ccc(F)cc2F)nn1` [Example 2.092], the IC50 turned out to be 95 nM. Against the preceding compound, the IC50 is about 1.5-fold higher. Next, `C=CCN1CC[C@H](NC(=O)c2cc(-c3ccc(F)cc3F)on2)[C@@H](C(=O)NC2(c3ncccn3)CC2)C1` [Example 2.093]: 26 nM; `O=C(N[C@H]1CCN(C2CC3CC3C2)C[C@@H]1C(=O)NC1(c2ncccn2)CC1)c1cc(-c2ccc(F)cc2F)on1` (stereo partly shown) [Example 2.094]: 2 nM; `O=C(N[C@H]1CCNC[C@@H]1C(=O)NC1(c2ncccn2)CC1)c1ncc(-c2ccc(F)cc2F)o1` [Example 2.096]: 634 nM. Turning to `O=C(N[C@H]1CCN(C2CCC2)C[C@@H]1C(=O)NC1(c2ncccn2)CC1)c1ncc(-c2ccc(F)cc2F)o1` [Example 2.097], half-maximal inhibition (IC50) was put at 650 nM. Next, `O=C(N[C@H]1CCN(C2CCCC2)C[C@@H]1C(=O)NC1(c2ncccn2)CC1)c1ncc(-c2ccc(F)cc2F)o1` [Example 2.098]: 94 nM.

`CC(C)N1CC[C@H](NC(=O)c2ncc(-c3ccc(F)cc3F)o2)[C@@H](C(=O)NC2(c3ncccn3)CC2)C1` [Example 2.099] displayed an IC50 of 343 nM. Regarding `O=C(N[C@H]1CCN(CC2CC(F)(F)C2)C[C@@H]1C(=O)NC1(c2ncccn2)CC1)c1cc(-c2ccc(F)cc2F)on1` [Example 2.101], the IC50 stood at 29 nM. This IC50 is about 12-fold lower than that of the compound before. Next, `O=C(N[C@H]1CCN(C2CSC2)C[C@@H]1C(=O)NC1(c2ncccn2)CC1)c1cc(-c2ccc(F)cc2F)on1` [Example 2.102]: 411 nM. Next, `O=C(N[C@H]1CCN(C2CC3(CC3)C2)C[C@@H]1C(=O)NC1(c2ncccn2)CC1)c1cc(-c2ccc(F)cc2F)on1` [Example 2.103]: 4 nM; `O=C(N[C@H]1CCNC[C@@H]1C(=O)NC1(c2ncccn2)CC1)c1nnc(-c2ccc(F)cc2F)s1` [Example 2.104]: 195 nM; `O=C(N[C@H]1CCN(C2CCC2)C[C@@H]1C(=O)NC1(c2ncccn2)CC1)c1nnc(-c2ccc(F)cc2F)s1` [Example 2.105]: 60 nM. In turn, `O=C(N[C@H]1CCN(CC2(F)CC2)C[C@@H]1C(=O)NC1(c2ncccn2)CC1)c1nnc(-c2ccc(F)cc2F)s1` [Example 2.106] yielded an IC50 of 13 nM. The result for `CCN1CC[C@H](NC(=O)c2nnc(-c3ccc(F)cc3F)s2)[C@@H](C(=O)NC2(c3ncccn3)CC2)C1` [Example 2.107] reads 114 nM; that for `O=C(N[C@@H]1CCN(C2CCCCC2)C[C@H]1C(=O)NC1(c2ccccn2)CC1)c1noc(-c2ccc(F)cc2F)n1` [Example 3.01], 69 nM. The result for `CC1(NC(=O)[C@H]2CN(C3CCCCC3)CC[C@@H]2NC(=O)c2cc(-c3ccc(F)cc3F)on2)CC1` [Example 4.001, (3S,4S)-1-Cyclohexyl-4-{[5-(2,4-difluoro-phenyl)-isoxazole-3-carbonyl]-amino}-piperidine-3-carboxylic Acid (1-methyl-cyclopropyl)-amide] reads 133 nM. Next, `COCC(C)(C)NC(=O)[C@H]1CN(C2CCCCC2)CC[C@@H]1NC(=O)c1cc(-c2ccc(F)cc2F)on1` [Example 4.002]: 60 nM; `COCCC(C)(C)NC(=O)[C@H]1CN(C2CCCCC2)CC[C@@H]1NC(=O)c1cc(-c2ccc(F)cc2F)on1` [Example 4.003]: 333 nM. Turning to `O=C(N[C@H]1CCN(C2CCCCC2)C[C@@H]1C(=O)NC1(c2ccc(F)cn2)CC1)c1cc(-c2ccc(F)cc2F)on1` [Example 4.004], the 50% inhibitory concentration (IC50) stood at 319 nM. The IC50 values of the last two compounds are within 1.5-fold of each other. The result for `CC(NC(=O)[C@H]1CN(C2CCCC2)CC[C@@H]1NC(=O)c1cc(-c2ccc(F)cc2F)on1)c1ccon1` (stereo partly shown) [Example 4.04] reads 86 nM; that for `CC1(NC(=O)[C@H]2CN(C3CCCCC3)CC[C@@H]2NC(=O)c2cc(-c3ccc(F)cc3F)on2)CCC1` [Example 4.006], 149 nM; that for `CC(NC(=O)[C@H]1CN(C2CCCCC2)CC[C@@H]1NC(=O)c1cc(-c2ccc(F)cc2F)on1)c1ncon1` (stereo partly shown) [Example 4.007], 52 nM. Next, `CC(NC(=O)[C@H]1CN(C2CCCCC2)CC[C@@H]1NC(=O)c1cc(-c2ccc(F)cc2F)on1)c1ccc(F)cn1` (stereo partly shown) [Example 4.008]: 150 nM; `C[C@@H](NC(=O)[C@@H]1CN(C2CCCCC2)CC[C@H]1NC(=O)c1cc(-c2ccc(F)cc2F)on1)C1CCC1` [Example 4.009]: 573 nM. The compound `O=C(N[C@H]1CCN(C2CCCCC2)C[C@@H]1C(=O)NC(CO)c1ccccn1)c1cc(-c2ccc(F)cc2F)on1` (stereo partly shown) [Example 4.013] came in with an IC50 of 145 nM. Against the preceding compound, the IC50 is about 4-fold lower.

`C[C@@H](NC(=O)[C@H]1CN(C2CCCCC2)CC[C@@H]1NC(=O)c1cc(-c2ccc(F)cc2F)on1)C1CCC1` [Example 4.014] displayed an IC50 of 363 nM. For `CC(C)(C)NC(=O)[C@@H]1CN(C2CCCCC2)CC[C@H]1NC(=O)c1cc(-c2ccc(F)cc2F)on1` [Example 4.015], 783 nM corresponded to half-maximal inhibition (IC50). Next, `CC1(NC(=O)[C@@H]2CN(C3CCCCC3)CC[C@H]2NC(=O)c2cc(-c3ccc(F)cc3F)on2)CCC1` [Example 4.016]: 463 nM. On to `CC1(NC(=O)[C@@H]2CN(C3CCCCC3)CC[C@H]2NC(=O)c2cc(-c3ccc(F)cc3F)on2)CC1` [Example 4.018], for which half-maximal inhibition (IC50) was put at 343 nM. Next, `CC(C)(C#N)NC(=O)[C@@H]1CN(C2CCCCC2)CC[C@H]1NC(=O)c1cc(-c2ccc(F)cc2F)on1` [Example 4.019]: 151 nM; `CC(NC(=O)[C@H]1CN(CC2CC2)CC[C@@H]1NC(=O)c1cc(-c2ccc(F)cc2F)on1)c1ccn[nH]1` (stereo partly shown) [Example 4.023]: 69 nM. Next, `C[C@@H](NC(=O)[C@H]1CN(CC2CC2)CC[C@@H]1NC(=O)c1cc(-c2ccc(F)cc2F)on1)c1cccnc1` [Example 4.024]: 56 nM; `O=C(N[C@H]1CCN(C2CCCC2)C[C@@H]1C(=O)NC1(c2ccncc2)CC1)c1cc(-c2ccc(F)cc2F)on1` [Example 4.026]: 15 nM.

In turn, `O=C(N[C@H]1CCN(CC2CC2)C[C@@H]1C(=O)NC1(c2ccncc2)CC1)c1cc(-c2ccc(F)cc2F)on1` [Example 4.027] had an IC50 of 8 nM. `O=C(N[C@H]1CCN(C2CCCC2)C[C@@H]1C(=O)NC1(c2ccccn2)CC1)c1cc(-c2ccc(F)cc2F)on1` [Example 4.028] came in with an IC50 of 32 nM. The result for `O=C(N[C@H]1CCN(CC2CC2)C[C@@H]1C(=O)NC1(c2ccccn2)CC1)c1cc(-c2ccc(F)cc2F)on1` [Example 4.031] reads 4 nM.

Source of the values: patent US11306078B2, “Piperidine CXCR7 receptor modulators” (IDORSIA PHARMACEUTICALS LTD., priority 2016, dated 2022).
